Data set [1] has as its target T1, BdcA (Escherichia coli, UniProt P39333).
T1 construct: full-length; N-terminal Thio6-His6 tag removed with TEV protease; expressed in E. coli BL21-Gold (DE3)
T1 sequence (P39333 1-237): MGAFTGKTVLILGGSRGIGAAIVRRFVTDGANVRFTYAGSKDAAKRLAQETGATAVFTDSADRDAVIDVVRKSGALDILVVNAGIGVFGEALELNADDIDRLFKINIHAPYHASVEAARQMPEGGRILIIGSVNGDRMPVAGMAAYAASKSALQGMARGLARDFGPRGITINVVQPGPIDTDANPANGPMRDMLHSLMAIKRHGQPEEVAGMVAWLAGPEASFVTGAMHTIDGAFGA
Description: differential scanning fluorimetry (SYPRO Orange). Format: binding. The following applies: 20 mM HEPES pH 7.5; 8 µM protein, 160 µM ligand. The source says:
differential scanning fluorimetry (SYPRO Orange) on BdcA
(In general: Differential scanning fluorimetry follows unfolding on heating by fluorescence.)

In data set [2] the target is T1, BdcA. Description: isothermal titration calorimetry. Format: binding. The source says: isothermal titration calorimetry on BdcA
In general terms: In ITC the heat of successive injections is recorded.

Data set [3] concerns the molecule itself. Description: SEC; Superdex 75 26/60, 20 mM Tris pH 7.5, 100 mM NaCl, 0.5 mM TCEP; elution volume compared with MW standards (158, 44, 17 kDa). On the technique in general: In gel filtration, larger molecules generally elute earlier.

The record followed here is article PMC4171110, “BdcA, a Protein Important for Escherichia coli Biofilm Dispersal, Is a Short-Chain Dehydrogenase/Reductase that Binds Specifically to NADPH” (PLoS ONE, 2014).

Broadly, the Kd is the equilibrium constant for the complex coming apart. By stoichiometry N is commonly meant a count of units in the complex or per binding partner.

For the molecule `NC(=O)c1ccc[n+]([C@@H]2O[C@H](COP(=O)(O)OP(=O)(O)OC[C@H]3O[C@@H](n4cnc5c(N)ncnc54)[C@H](OP(=O)(O)O)[C@@H]3O)[C@@H](O)[C@H]2O)c1` [NADP], the “ΔTm (°C)” value on BdcA [1] is 1.0 °C.

As for `NC(=O)C1=CN([C@@H]2O[C@H](COP(=O)(O)OP(=O)(O)OC[C@H]3O[C@@H](n4cnc5c(N)ncnc54)[C@H](OP(=O)(O)O)[C@@H]3O)[C@@H](O)[C@H]2O)C=CC1` [NADPH], on BdcA [1], the “ΔTm (°C)” value turned out to be 3.1 °C. In addition, at BdcA [2], the affinity, expressed as Kd, was 25.9 ± 4.1 µM.

B1: BdcA (enzyme, E. coli, UniProt P39333 1-237, looked up)
chain: MGAFTGKTVLILGGSRGIGAAIVRRFVTDGANVRFTYAGSKDAAKRLAQETGATAVFTDSADRDAVIDVVRKSGALDILVVNAGIGVFGEALELNADDIDRLFKINIHAPYHASVEAARQMPEGGRILIIGSVNGDRMPVAGMAAYAASKSALQGMARGLARDFGPRGITINVVQPGPIDTDANPANGPMRDMLHSLMAIKRHGQPEEVAGMVAWLAGPEASFVTGAMHTIDGAFGA
notes: BdcA (YjgI), short-chain dehydrogenase/reductase of E. coli, full-length bdcA gene in the RP1B vector; monomer MW 24.9 kDa as printed; Tag removed with TEV protease; Homodimer in the crystal and in solution; also called YjgI; BcdA; source: E. coli BL21-Gold (DE3), purified (HisTrap, TEV cleavage, Ni-NTA, SEC); not shown: Thio6-His6, N-terminal, cleaved
With B1, the “stoichiometry N” value in data set [3] was 2.
